From patent publication US20240384268A1, “Oligonucleotides” (Hudson Institute of Medical Research, priority 2021, published 2024)
In the oligonucleotide strings, read from the 5' end, every base follows the letter of its sugar. An asterisk marks phosphorothioate; unmarked linkages are phosphodiester. Other units and linkages are bracketed, terminal groups are in braces. A string of capitals states the bases alone. d = 2'-deoxy (DNA); m = 2'-O-methyl

Target: T1, TLR8 (Homo sapiens, UniProt Q9NR97)
T1 sequence (Q9NR97 27-1041): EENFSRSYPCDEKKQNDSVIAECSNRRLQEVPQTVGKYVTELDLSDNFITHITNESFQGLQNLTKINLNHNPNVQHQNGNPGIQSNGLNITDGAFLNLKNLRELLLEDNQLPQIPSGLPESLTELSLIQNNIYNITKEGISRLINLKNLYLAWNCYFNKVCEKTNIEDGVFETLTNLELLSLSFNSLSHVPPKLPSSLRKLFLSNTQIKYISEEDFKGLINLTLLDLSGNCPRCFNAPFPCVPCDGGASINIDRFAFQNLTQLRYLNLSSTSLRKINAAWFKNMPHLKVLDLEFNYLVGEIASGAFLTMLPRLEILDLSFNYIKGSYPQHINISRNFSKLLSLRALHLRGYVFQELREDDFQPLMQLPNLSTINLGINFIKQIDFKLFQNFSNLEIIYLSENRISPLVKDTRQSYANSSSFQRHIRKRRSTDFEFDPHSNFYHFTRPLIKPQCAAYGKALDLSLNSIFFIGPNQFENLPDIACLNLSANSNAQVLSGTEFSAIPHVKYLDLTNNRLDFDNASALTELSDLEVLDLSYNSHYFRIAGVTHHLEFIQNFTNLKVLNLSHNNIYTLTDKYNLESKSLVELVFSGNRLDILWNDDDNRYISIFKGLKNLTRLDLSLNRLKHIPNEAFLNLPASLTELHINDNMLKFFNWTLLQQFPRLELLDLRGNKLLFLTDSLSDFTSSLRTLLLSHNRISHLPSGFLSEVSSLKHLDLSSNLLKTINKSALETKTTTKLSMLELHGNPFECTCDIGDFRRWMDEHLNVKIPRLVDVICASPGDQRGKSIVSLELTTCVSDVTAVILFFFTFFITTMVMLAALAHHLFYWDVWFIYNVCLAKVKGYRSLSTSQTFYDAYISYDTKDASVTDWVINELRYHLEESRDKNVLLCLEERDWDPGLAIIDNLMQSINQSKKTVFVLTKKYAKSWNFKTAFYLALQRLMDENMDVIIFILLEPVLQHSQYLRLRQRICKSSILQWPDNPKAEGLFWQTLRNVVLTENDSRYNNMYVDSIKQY
Experiment: HEK-TLR8 NF-κB-luciferase reporter, R848 or Motolimod stimulation (potentiation or inhibition)
Format: cell-based
Parameters: expressed in transfected cells; host or cells: 293XLhTLR8 (HEK293)
Conditions: for TLR8-500 nM: averaged NF-κB-Luciferase relative to R848: HEK-TLR8, 500 nM ASO, fold increase relative to R848 without ASO (Alharbi et al., 2020); for TLR8 100 nM: MOE-modified ASO at 100 nM; for TLR8 100 nM / TLR8 500 nM: averaged NF-κB-Luciferase relative to R848 condition (fold increase); for TLR8 500 nM: MOE-modified ASO at 500 nM

Row | Substance | TLR8-500 nM: averaged NF-κB-Luciferase relative to R848 [fold] | TLR8 100 nM | TLR8 500 nM
1 | mG*mA*mU*mG*mG*T*T*C*C*A*G*T*C*C*C*mU*mC*mU*mU*mC (GAUGGTTCCAGTCCCUCUUC; antisense; sugars from the 5' end m5 d10 m5, all phosphorothioate, methylation of C not given here) [[LINC-PINT]1497.1] | 1.01 | – | –
2 | mU*mC*mU*mG*mG*T*C*C*C*A*T*C*C*C*T*mU*mC*mU*mG*mC (UCUGGTCCCATCCCTUCUGC; antisense; sugars from the 5' end m5 d10 m5, all phosphorothioate, methylation of C not given here) [[LINC-PINT]106] | 5.25 | – | –
3 | mU*mG*mU*mU*mU*C*C*C*C*G*G*A*G*A*G*mC*mA*mA*mU*mG (UGUUUCCCCGGAGAGCAAUG; antisense; sugars from the 5' end m5 d10 m5, all phosphorothioate, methylation of C not given here) [[LINC-PINT]501 KL] | 2.04 | – | –
4 | mU*mU*mA*mA*mA*T*A*A*T*C*T*A*G*T*T*mU*mG*mA*mA*mG (UUAAATAATCTAGTTUGAAG; sugars from the 5' end m5 d10 m5, all phosphorothioate, methylation of C not given here) [[CDKN2B-AS1]132] | 6.43 | – | –
5 | GCTGACAAAGATTCACTGGT (antisense; 2'-MOE modified, pattern not given here) [HPRT-1353 MOE] | – | 1.475 | 3.067
6 | mU*mG*mA*mC*mA*A*A*A*C*A*A*T*A*A*T*mA*mA*mC*mA*mG (mU*mG*mA*mC*mA*dA*dA*dA*dC*dA*dA*dT*dA*dA*dT*mA*mA*mC*mA*mG) [[LINC-PINT]384] | 2.57 | – | –
7 | mA*mA*mA*mU*mG*T*C*C*T*G*G*C*C*C*T*mC*mA*mC*mU*mG (mA*mA*mA*mU*mG*dT*dC*dC*dT*dG*dG*dC*dC*dC*dT*mC*mA*mC*mU*mG) [[LINC-PINT]148.1] | 1.56 | – | –
8 | mG*mU*mC*mC*mG*T*A*C*C*T*C*C*A*C*C*mC″mA*mC*mC*mG [[LINC-PINT]727.1] | 3.70 | – | –
9 | mU*mG*mU*mG*mA*A*A*A*G*A*T*T*A*T*C*mU*mU*mC*mU*mU (UGUGAAAAGATTATCUUCUU; sugars from the 5' end m5 d10 m5, all phosphorothioate, methylation of C not given here) [[CDKN2B-AS1]2137] | 4.97 | – | –
10 | TGGGTTACGGCTCAGTATGG (antisense; 2'-MOE modified, pattern not given here) [CAMSAP1-4295 MOE] | – | 1.610 | 1.538
11 | mA*mA*mA*mA*mU*A*A*G*G*G*G*A*A*T*A*mG*mG*mG*mG*mA (mA*mA*mA*mA*mU*dA*dA*dG*dG*dG*dG*dA*dA*dT*dA*mG*mG*mG*mG*mA; antisense) [[CDKN2B-AS1]79] | 0.71 | – | –
12 | mG*mC*mG*mU*mA*G*T*T*T*C*T*C*T*T*C*mC*mU*mC*mC*mC (GCGUAGTTTCTCTTCCUCCC; sugars from the 5' end m5 d10 m5, all phosphorothioate, methylation of C not given here) [[LINC-PINT]935 KL] | 4.12 | – | –
13 | mG*mU*mU*mC*mA*G*T*C*A*G*A*T*C*G*C*mU*mG*mG*mG*mA (mG*mU*mU*mC*mA*dG*dT*dC*dA*dG*dA*dT*dC*dG*dC*mU*mG*mG*mG*mA) [[LINC-PINT]412 KL] | 1.70 | – | –
14 | mU*mU*mA*mG*mC*T*C*C*T*T*G*C*C*T*C*mG*mU*mU*mC*mC (mU*mU*mA*mG*mC*dT*dC*dC*dT*dT*dG*dC*dC*dT*dC*mG*mU*mU*mC*mC; antisense) [[LINC-PINT] 1222] | 8.41 | – | –
15 | mC*mU*mU*mU*mA*T*A*T*T*A*C*A*A*A*G*mC*mU*mA*mC*mU (mC*mU*mU*mU*mA*dT*dA*dT*dT*dA*dC*dA*dA*dA*dG*mC*mU*mA*mC*mU; antisense) [[LINC-PINT]2755] | 6.37 | – | –
16 | mC*mC*mC*mU*mU*C*T*C*T*C*T*G*G*T*C*mC*mC*mA*mU*mC (mC*mC*mC*mU*mU*dC*dT*dC*dT*dC*dT*dG*dG*dT*dC*mC*mC*mA*mU*mC; antisense) [[LINC-PINT]114] | 8.12 | – | –
17 | mU*mU*mG*mG*mC*C*T*G*T*G*G*A*T*G*C*mU*mU*mU*mG*mU (mU*mU*mG*mG*mC*dC*dT*dG*dT*dG*dG*dA*dT*dG*dC*mU*mU*mU*mG*mU) [[LINC-PINT]2673.1] | 0.94 | – | –
